From ChEMBL document CHEMBL1143484, “Discovery of 1-amino-4-phenylcyclohexane-1-carboxylic acid and its influence on agonist selectivity between human melanocortin-4 and -1 receptors in linear pentapeptides” (Bioorg Med Chem Lett, 2005)
Non-standard residues stand in square brackets, D forms with d. Residues, ends and D or L forms follow the SMILES beside them. *: point of attachment. Butyryl = CCCC(=O)*

Tests used:
Melanocortin receptor 4 [1] = biological target: T1, Melanocortin receptor 4 (Homo sapiens, UniProt P32245); assay: Effective concentration for cAMP accumulation mediated by human Melanocortin 4 receptor in HEK293 cells; assay type: functional, cell-based
T1 sequence (P32245 whole entry): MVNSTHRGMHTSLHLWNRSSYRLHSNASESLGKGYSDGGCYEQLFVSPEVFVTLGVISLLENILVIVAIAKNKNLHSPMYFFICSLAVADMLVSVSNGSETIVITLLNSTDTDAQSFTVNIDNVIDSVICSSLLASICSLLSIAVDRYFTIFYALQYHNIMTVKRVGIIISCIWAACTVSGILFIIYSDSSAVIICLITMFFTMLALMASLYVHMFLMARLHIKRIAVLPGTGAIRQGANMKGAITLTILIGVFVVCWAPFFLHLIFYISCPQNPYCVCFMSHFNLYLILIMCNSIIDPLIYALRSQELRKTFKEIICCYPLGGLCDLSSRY

Melanocortin receptor 4 [2] = biological target: T1, Melanocortin receptor 4; assay: Binding affinity towards human Melanocortin 4 receptor using radiolabeled NDP-MSH displacement
[3] = biological target: T2, Melanocyte-stimulating hormone receptor (Homo sapiens, UniProt Q01726); assay: Binding affinity towards human Melanocortin 1 receptor using radiolabeled NDP-MSH displacement
Target sequence in this assay (Q01726 whole entry): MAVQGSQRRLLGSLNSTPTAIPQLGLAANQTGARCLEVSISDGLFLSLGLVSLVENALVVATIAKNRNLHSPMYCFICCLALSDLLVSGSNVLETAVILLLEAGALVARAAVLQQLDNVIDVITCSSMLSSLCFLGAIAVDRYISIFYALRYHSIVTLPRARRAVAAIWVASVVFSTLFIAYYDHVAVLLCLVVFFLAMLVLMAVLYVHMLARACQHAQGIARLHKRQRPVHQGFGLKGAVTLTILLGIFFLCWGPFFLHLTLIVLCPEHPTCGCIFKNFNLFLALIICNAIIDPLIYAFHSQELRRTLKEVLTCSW

[4] = biological target: T2, Melanocyte-stimulating hormone receptor; assay: Effective concentration required for cAMP accumulation mediated by human Melanocortin 1 receptor in HEK293 cells; assay type: functional, cell-based
Target sequence in this assay (Q01726 whole entry): as above

[5] = biological target: T2, Melanocyte-stimulating hormone receptor; assay: Concentration (50 uM) required for cAMP accumulation mediated by human Melanocortin 1 receptor in HEK293 cells; assay type: functional, cell-based
Target sequence in this assay (Q01726 whole entry, looked up): as the sequence (Q01726 whole entry) above

Melanocortin receptor 4 [6] = biological target: T1, Melanocortin receptor 4; assay: Concentration (50 uM) required for cAMP accumulation mediated by human Melanocortin 4 receptor in HEK293 cells; assay type: functional, cell-based
[7] = biological target: Melanocortin receptor 5 (Homo sapiens) (UniProt P33032); assay: Concentration (50 uM) required for cAMP accumulation mediated by human Melanocortin 5 receptor in HEK293 cells; assay type: functional, cell-based
Sequence of Melanocortin receptor 5 (Homo sapiens) (P33032 whole entry): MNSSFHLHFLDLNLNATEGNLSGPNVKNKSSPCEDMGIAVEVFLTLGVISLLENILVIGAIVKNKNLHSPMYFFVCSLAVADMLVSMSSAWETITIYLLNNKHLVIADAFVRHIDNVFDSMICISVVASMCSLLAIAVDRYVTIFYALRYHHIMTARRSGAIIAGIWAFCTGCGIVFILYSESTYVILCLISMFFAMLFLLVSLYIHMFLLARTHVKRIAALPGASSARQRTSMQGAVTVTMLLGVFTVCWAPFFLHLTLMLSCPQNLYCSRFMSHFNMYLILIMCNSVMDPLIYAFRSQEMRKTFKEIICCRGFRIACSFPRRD

[8] = biological target: Melanocortin receptor 3 (Homo sapiens) (UniProt P41968); assay: Concentration (50 uM) required for cAMP accumulation mediated by human Melanocortin 3 receptor in HEK293 cells; assay type: functional, cell-based
Sequence of Melanocortin receptor 3 (Homo sapiens) (P41968 whole entry): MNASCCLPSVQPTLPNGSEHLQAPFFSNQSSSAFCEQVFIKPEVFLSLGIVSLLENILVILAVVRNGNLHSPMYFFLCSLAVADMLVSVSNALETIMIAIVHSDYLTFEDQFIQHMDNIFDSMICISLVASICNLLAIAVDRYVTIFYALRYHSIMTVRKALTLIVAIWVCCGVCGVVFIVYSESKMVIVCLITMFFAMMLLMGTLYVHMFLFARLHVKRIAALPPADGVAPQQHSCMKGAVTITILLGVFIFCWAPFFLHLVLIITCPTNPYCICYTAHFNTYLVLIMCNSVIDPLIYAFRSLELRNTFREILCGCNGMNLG

| SMILES | EC50 (Melanocortin receptor 4 [1]) | EC50 [4] | cAMP accumulation at 50 uM [5] | other results |
| --- | --- | --- | --- | --- |
| CCCCC(=O)N[C@]1(C(=O)N[C@H](Cc2ccccc2)C(=O)N[C@@H](CCCNC(=N)N)C(=O)N[C@@H](Cc2c[nH]c3ccccc23)C(=O)NCC(N)=O)CC[C@H](c2ccc(Cl)cc2)CC1 | 4 nM |  |  |  |
| CCCCC(=O)N[C@]1(C(=O)N[C@H](Cc2ccccc2)C(=O)N[C@@H](CCCNC(=N)N)C(=O)N[C@@H](Cc2c[nH]c3ccccc23)C(=O)NCC(N)=O)CC[C@H](c2ccccc2)CC1 | 2 nM |  |  | IC50 (Melanocortin receptor 4 [2]): 13 nM; IC50 [3]: 7100 nM |
| CCCCC(=O)N[C@]1(C(=O)N[C@H](Cc2ccccc2)C(=O)N[C@@H](CCCNC(=N)N)C(=O)N[C@@H](Cc2c[nH]c3ccccc23)C(N)=O)CC[C@H](c2ccccc2)CC1 | 130 nM | 1300 nM |  |  |
| CCCCC(=O)N[C@]1(C(=O)N[C@H](Cc2ccccc2)C(=O)N[C@@H](CCCNC(=N)N)C(=O)N[C@@H](Cc2c[nH]c3ccccc23)C(=O)NCC(N)=O)CC[C@H](c2ccc(OC(C)C)cc2)CC1 | 6 nM |  |  |  |
| CCCCC(=O)N[C@]1(C(=O)NC(Cc2ccccc2)C(=O)NC(CCCN=C(N)N)C(=O)N[C@@H](Cc2c[nH]c3ccccc23)C(=O)NCC(N)=O)CC[C@H](c2ccc(OC)cc2)CC1 (single isomer, unassigned) | 9 nM |  | 0% |  |
| CCCCC(=O)N[C@@]1(C(=O)N[C@H](Cc2ccccc2)C(=O)N[C@@H](CCCN=C(N)N)C(=O)N[C@@H](Cc2c[nH]c3ccccc23)C(=O)NCC(N)=O)CCc2ccccc2C1 | 45 nM | 830 nM |  |  |
| CCCCC(=O)N[C@]1(C(=O)N[C@H](Cc2ccccc2)C(=O)N[C@@H](CCCN=C(N)N)C(=O)N[C@@H](Cc2c[nH]c3ccccc23)C(=O)NCC(N)=O)CC[C@H](c2ccc(Cl)cc2)CC1 |  |  | 45% |  |
| CCCCC(=O)N[C@]1(C(=O)N[C@H](Cc2ccccc2)C(=O)N[C@@H](CCCNC(=N)N)C(=O)N[C@@H](Cc2c[nH]c3ccccc23)C(=O)NCC(N)=O)CC[C@H](c2ccc(O)cc2)CC1 | 5 nM | 1300 nM |  |  |
| CCCCC(=O)N[C@]1(C(=O)NC(Cc2ccccc2)C(=O)NC(CCCN=C(N)N)C(=O)N[C@@H](Cc2c[nH]c3ccccc23)C(=O)NCC(N)=O)CC[C@@H](c2ccccc2)CC1 (single isomer, unassigned) | 88 nM | 1300 nM |  |  |
| CCCCC(=O)N[C@]1(C(=O)N[C@H](Cc2ccccc2)C(=O)N[C@@H](CCCN=C(N)N)C(=O)N[C@@H](Cc2c[nH]c3ccccc23)C(=O)NCC(N)=O)CC[C@H](c2cc(CCC)cc(CCC)c2)CC1 |  | 210 nM |  | Accumulation (Melanocortin receptor 4 [6]): 60% |
| CCCCC(=O)N[C@]1(C(=O)NC(Cc2ccccc2)C(=O)NC(CCCN=C(N)N)C(=O)N[C@@H](Cc2c[nH]c3ccccc23)C(=O)NCC(N)=O)CC[C@H](c2ccc(C)cc2)CC1 (single isomer, unassigned) | 3 nM |  | 55% |  |
| CCCCC(=O)N[C@]1(C(=O)N[C@H](Cc2ccccc2)C(=O)N[C@@H](CCCN=C(N)N)C(=O)N[C@@H](Cc2c[nH]c3ccccc23)C(=O)NCC(N)=O)CC[C@H](c2ccccc2)CC1 |  |  | 25% | Accumulation [7]: 36%; Accumulation [8]: 57% |
| CCCCC(=O)N[C@]1(C(=O)N[C@H](Cc2ccccc2)C(=O)N[C@@H](CCCNC(=N)N)C(=O)N[C@@H](Cc2c[nH]c3ccccc23)C(=O)NCC(N)=O)CC[C@H](c2cccc(OC)c2)CC1 | 2 nM | 690 nM |  |  |
| CCCC(=O)N[C@@H](Cc1c[nH]cn1)C(=O)N[C@H](Cc1ccccc1)C(=O)N[C@@H](CCCN=C(N)N)C(=O)N[C@@H](Cc1c[nH]c2ccccc12)C(=O)NCC(N)=O (Butyryl-H[dF]RWG-NH2) |  |  |  | Accumulation [7]: 0%; Accumulation [8]: 0% |
| CCCCC(=O)N[C@]1(C(=O)N[C@H](Cc2ccccc2)C(=O)N[C@@H](CCCNC(=N)N)C(=O)N[C@@H](Cc2c[nH]c3ccccc23)C(=O)NCC(N)=O)CC[C@H](c2ccc(OCC)cc2)CC1 | 13 nM |  |  | IC50 (Melanocortin receptor 4 [2]): 43 nM; IC50 [3]: 4700 nM |
| CCCCC(=O)N[C@]1(C(=O)N[C@H](Cc2ccccc2)C(=O)N[C@@H](CCCN=C(N)N)C(=O)N[C@@H](Cc2c[nH]c3ccccc23)C(=O)NCC(N)=O)CC[C@H](c2ccc(OCC)cc2)CC1 |  |  | 0% | Accumulation [7]: 46%; Accumulation [8]: 28% |
| CCCCC(=O)N[C@]1(C(=O)N[C@H](Cc2ccccc2)C(=O)N[C@@H](CCCN=C(N)N)C(=O)N[C@@H](Cc2c[nH]c3ccccc23)C(=O)NCC(N)=O)CC[C@H](c2ccc(OC(C)C)cc2)CC1 |  |  | 60% |  |
| NC(=O)CNC(=O)[C@H](Cc1c[nH]c2ccccc12)NC(=O)[C@H](CCCN=C(N)N)NC(=O)[C@@H](Cc1ccccc1)NC(=O)[C@H]1CC[C@H](c2ccccc2)CC1 | 550 nM |  | 60% |  |
